Source: patent publication US9206184B2, “Disubstituted benzothienyl-pyrrolotriazines and uses thereof” (BAYER INTELLECTUAL PROPERTY GmbH, priority 2011, dated 2015)
Where a name gives a salt, the structure may show the parent alone.

What was measured:
[1] = tested on: Human umbilical vein endothelial cells (HUVEC); test: Inhibition of growth factor-mediated cell proliferation (hFGF-2, HUVEC); type: cell-based; conditions: 72 h, read-out: hFGF-2 mediated HUVEC proliferation, IC50 [nM]
[2] = molecular target: human FGFR-3 (Homo sapiens (Human), UniProt P22607); test: FGFR-3 kinase assay (TR-FRET); type: biochemical; conditions: 10 μM ATP, 15 min pre-incubation with enzyme, compounds of the invention
Sequence of human FGFR-3 (P22607 397-806): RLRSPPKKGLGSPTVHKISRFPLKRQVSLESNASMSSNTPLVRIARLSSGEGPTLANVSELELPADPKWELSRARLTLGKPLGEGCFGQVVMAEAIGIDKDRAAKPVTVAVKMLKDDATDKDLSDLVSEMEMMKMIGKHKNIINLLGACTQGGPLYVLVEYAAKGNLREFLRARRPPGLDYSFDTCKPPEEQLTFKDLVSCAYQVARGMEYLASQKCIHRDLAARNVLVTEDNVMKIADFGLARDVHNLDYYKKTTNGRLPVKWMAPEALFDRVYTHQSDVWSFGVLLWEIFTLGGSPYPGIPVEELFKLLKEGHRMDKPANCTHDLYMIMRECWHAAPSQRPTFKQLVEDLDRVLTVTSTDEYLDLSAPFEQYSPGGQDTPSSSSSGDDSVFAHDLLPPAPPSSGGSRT

[3] = molecular target: human FGFR-1 (Homo sapiens, UniProt P11362); test: FGFR-1 high ATP kinase assay (TR-FRET); type: biochemical; conditions: 2 mM ATP; 15 min pre-incubation with enzyme; compounds of the invention
Sequence of human FGFR-1 (P11362 22-822 limits assumed): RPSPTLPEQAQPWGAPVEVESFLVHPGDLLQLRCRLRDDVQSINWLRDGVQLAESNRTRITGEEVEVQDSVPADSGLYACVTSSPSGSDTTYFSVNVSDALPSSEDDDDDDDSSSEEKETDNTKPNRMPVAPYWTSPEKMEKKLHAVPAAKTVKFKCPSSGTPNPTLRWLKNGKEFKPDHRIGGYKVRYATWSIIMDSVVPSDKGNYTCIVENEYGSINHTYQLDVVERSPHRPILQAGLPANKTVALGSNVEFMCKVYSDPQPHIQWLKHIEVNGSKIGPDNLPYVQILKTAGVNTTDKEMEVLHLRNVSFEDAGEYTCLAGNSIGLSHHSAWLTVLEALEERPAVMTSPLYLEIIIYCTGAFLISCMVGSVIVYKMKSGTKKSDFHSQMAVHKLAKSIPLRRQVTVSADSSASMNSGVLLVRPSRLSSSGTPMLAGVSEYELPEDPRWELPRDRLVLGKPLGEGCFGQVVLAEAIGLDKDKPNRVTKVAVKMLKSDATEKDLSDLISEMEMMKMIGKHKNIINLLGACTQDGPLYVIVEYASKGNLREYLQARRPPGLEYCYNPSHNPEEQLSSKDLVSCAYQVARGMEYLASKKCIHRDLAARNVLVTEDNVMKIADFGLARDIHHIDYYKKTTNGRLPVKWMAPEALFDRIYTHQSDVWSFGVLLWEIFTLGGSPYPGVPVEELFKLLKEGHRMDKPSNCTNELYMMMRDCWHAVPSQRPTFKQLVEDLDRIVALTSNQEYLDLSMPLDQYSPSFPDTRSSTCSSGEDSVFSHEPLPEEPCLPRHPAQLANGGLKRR

Row | Structure (SMILES) | IC50 [1] [nM] | further results
1 | COc1cc(C)cc2cc(-c3c(CNC(C)=O)c(CN4CCNCC4)n4ncnc(N)c34)sc12 [Example 64, N-{[4-Amino-5-(7-methoxy-5-methyl-1-benzothiophen-2-yl)-7-(piperazin-1-ylmethyl)pyrrolo-[2,1-f][1,2,4]triazin-6-yl]methyl}acetamide dihydrochloride] | 4.5 | 
2 | COc1cc(C)cc2cc(-c3c(CNCC(=O)O)c(CN4CCNCC4)n4ncnc(N)c34)sc12 [Example 48, N-{[4-Amino-5-(7-methoxy-5-methyl-1-benzothiophen-2-yl)-7-(piperazin-1-ylmethyl)pyrrolo-[2,1-f][1,2,4]triazin-6-yl]methyl}glycine trihydrochloride] | 360 | IC50 [2]: 45.4 nM
3 | COc1cc(C)cc2cc(-c3c(CNC4CC4)c(CN4CCNCC4)n4ncnc(N)c34)sc12 [Example 46, 6-[(Cyclopropylamino)methyl]-5-(7-methoxy-5-methyl-1-benzothiophen-2-yl)-7-(piperazin-1-ylmethyl)pyrrolo[2,1-f][1,2,4]triazin-4-amine trihydrochloride] | 84.5 | 
4 | CCOCc1c(-c2cc3cc(C)cc(OC)c3s2)c2c(N)ncnn2c1CN1CCN(C(C)=O)CC1 [Example 11, 1-(4-{[4-Amino-6-(ethoxymethyl)-5-(7-methoxy-5-methyl-1-benzothiophen-2-yl)pyrrolo[2,1-f]-[1,2,4]triazin-7-yl]methyl}piperazin-1-yl)ethanone dihydrochloride] | 150 | IC50 ([2]; dihydrochloride): 13 nM
5 | COCc1c(-c2cc3cc(C)cc(OC)c3s2)c2c(N)ncnn2c1CN1CCN(C(C)=O)CC1 [Example 16, 1-(4-{[4-Amino-6-(methoxymethyl)-5-(7-methoxy-5-methyl-1-benzothiophen-2-yl)pyrrolo[2,1-f]-[1,2,4]triazin-7-yl]methyl}piperazin-1-yl)ethanone dihydrochloride] | 117 | 
6 | COCc1c(-c2cc3cc(C)cc(OC)c3s2)c2c(N)ncnn2c1CN1CC[C@](C)(N)C1 [Example 14, 7-{[(3S)-3-Amino-3-methylpyrrolidin-1-yl]methyl}-6-(methoxymethyl)-5-(7-methoxy-5-methyl-1-benzothiophen-2-yl)pyrrolo[2,1-f][1,2,4]triazin-4-amine trihydrochloride] | 25 | IC50 [3]: 1.4 nM
7 | COc1cc(C)cc2cc(-c3c(CNCCO)c(CN4CCNCC4)n4ncnc(N)c34)sc12 [Example 39, 2-({[4-Amino-5-(7-methoxy-5-methyl-1-benzothiophen-2-yl)-7-(piperazin-1-ylmethyl)pyrrolo-[2,1-f][1,2,4]triazin-6-yl]methyl}amino)ethanol trihydrochloride] | 365 | 
8 | CCNCc1c(-c2cc3cc(C)cc(OC)c3s2)c2c(N)ncnn2c1CN1CCNCC1 [Example 38, 6-[(Ethylamino)methyl]-5-(7-methoxy-5-methyl-1-benzothiophen-2-yl)-7-(piperazin-1-ylmethyl)pyrrolo[2,1-f][1,2,4]triazin-4-amine trihydrochloride] | 213 | 
9 | COc1cc(C)cc2cc(-c3c(CN4CCCC4)c(CN4CCNCC4)n4ncnc(N)c34)sc12 [Example 45, 5-(7-Methoxy-5-methyl-1-benzothiophen-2-yl)-7-(piperazin-1-ylmethyl)-6-(pyrrolidin-1-ylmethyl)pyrrolo[2,1-f][1,2,4]triazin-4-amine trihydrochloride] | 171 | 
